Measured values from ChEMBL document CHEMBL5357082, “Identification and Optimization of Small Molecule Pyrazolopyrimidine TLR7 Agonists for Applications in Immuno-oncology” (ACS Med Chem Lett, 2024).
pEC50, pIC50: −log10 of the molar value.

Columns and labels:
Cytochrome P450 2C8 = biological target: T1, Cytochrome P450 2C8 (Homo sapiens, UniProt P10632); assay: Inhibition of CYP2C8 (unknown origin); assay type: ADME
T1 sequence (P10632 whole entry): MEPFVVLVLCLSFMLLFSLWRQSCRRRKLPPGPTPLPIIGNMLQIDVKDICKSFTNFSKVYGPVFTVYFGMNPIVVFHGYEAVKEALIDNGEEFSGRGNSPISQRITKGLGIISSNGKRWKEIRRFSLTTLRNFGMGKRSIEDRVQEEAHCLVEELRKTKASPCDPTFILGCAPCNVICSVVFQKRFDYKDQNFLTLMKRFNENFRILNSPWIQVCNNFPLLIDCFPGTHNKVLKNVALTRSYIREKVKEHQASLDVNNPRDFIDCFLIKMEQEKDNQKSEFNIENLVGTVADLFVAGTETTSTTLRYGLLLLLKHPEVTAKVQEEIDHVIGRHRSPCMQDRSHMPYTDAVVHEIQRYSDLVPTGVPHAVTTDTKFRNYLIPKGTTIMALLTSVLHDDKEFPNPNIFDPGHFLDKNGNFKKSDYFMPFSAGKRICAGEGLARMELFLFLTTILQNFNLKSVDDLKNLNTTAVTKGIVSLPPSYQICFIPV

Cytochrome P450 2D6 = Cytochrome P450 2D6 (Homo sapiens, UniProt P10635); assay: Inhibition of CYP2D6 (unknown origin); assay type: ADME
Cytochrome P450 2D6, sequence (P10635 whole entry): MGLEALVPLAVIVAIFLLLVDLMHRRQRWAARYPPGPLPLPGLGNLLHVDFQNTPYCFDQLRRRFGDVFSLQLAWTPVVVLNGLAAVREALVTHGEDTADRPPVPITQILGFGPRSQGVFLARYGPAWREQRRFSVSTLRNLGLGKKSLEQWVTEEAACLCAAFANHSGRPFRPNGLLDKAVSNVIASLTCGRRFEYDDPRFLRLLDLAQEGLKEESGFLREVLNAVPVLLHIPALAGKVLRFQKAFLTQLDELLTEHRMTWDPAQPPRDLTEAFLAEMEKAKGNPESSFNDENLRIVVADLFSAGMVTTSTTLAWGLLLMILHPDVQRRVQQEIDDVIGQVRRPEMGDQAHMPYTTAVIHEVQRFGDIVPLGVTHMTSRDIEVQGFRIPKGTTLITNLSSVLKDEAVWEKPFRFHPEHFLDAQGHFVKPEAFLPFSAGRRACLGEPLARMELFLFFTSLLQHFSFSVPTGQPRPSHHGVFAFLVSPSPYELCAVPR

Toll-like receptor 7 [1] = biological target: T2, Toll-like receptor 7 (Mus musculus, UniProt P58681); assay: Agonist activity at mouse TLR7
T2 sequence (P58681 whole entry): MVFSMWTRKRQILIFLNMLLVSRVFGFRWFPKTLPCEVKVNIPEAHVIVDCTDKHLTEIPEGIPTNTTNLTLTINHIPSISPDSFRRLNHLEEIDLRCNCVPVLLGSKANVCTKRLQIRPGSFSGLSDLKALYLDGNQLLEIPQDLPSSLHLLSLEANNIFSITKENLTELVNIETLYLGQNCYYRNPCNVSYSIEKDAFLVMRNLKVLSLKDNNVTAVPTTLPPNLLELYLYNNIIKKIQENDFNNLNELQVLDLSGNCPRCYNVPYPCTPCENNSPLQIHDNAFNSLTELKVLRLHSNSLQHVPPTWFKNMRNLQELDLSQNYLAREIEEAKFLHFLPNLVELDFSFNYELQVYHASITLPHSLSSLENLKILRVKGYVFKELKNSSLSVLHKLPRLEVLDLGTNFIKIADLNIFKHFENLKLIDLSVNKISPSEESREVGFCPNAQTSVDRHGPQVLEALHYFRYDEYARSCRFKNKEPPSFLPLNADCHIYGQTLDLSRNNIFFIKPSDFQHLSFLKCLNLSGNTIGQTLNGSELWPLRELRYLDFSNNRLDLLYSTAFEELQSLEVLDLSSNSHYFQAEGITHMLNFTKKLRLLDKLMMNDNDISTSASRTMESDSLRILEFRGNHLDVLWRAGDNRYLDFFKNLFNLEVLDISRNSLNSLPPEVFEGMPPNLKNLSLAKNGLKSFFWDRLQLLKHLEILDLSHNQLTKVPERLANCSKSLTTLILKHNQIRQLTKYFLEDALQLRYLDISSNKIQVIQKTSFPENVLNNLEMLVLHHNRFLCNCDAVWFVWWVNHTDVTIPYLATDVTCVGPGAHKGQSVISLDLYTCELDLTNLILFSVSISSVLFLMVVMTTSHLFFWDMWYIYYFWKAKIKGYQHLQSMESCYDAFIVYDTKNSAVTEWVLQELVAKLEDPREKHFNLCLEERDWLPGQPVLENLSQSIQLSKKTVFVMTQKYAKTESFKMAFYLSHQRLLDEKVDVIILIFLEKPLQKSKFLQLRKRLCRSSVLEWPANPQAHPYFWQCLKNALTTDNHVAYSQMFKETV

[2] = Metabolic stability in mouse liver microsomes assessed as compound remaining at 0.5 uM incubated for 10 mins in presence of NADPH by UV absorbance based assay; assay type: ADME, Microsome; settings: read-out: Stability
Cytochrome P450 3A4 [3] = biological target: T3, Cytochrome P450 3A4 (Homo sapiens, UniProt P08684); assay: Inhibition of CYP3A4 (unknown origin) using BFC as substrate; assay type: ADME
T3 sequence (P08684 whole entry): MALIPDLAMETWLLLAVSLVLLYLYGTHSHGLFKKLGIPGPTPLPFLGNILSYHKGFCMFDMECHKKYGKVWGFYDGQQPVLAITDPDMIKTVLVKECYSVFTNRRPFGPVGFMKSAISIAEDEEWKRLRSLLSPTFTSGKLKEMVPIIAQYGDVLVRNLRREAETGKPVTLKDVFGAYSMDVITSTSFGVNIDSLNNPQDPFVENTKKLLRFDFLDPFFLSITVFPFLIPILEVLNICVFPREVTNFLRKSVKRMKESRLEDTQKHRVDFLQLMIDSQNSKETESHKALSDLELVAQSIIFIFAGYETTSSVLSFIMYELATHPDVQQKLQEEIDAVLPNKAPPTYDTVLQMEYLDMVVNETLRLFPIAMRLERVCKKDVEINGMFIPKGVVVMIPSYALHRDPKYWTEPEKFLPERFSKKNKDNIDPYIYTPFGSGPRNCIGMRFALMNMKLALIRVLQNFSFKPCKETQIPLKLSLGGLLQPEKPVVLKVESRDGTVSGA

Cytochrome P450 1A2 = biological target: T4, Cytochrome P450 1A2 (Homo sapiens, UniProt P05177); assay: Inhibition of CYP1A2 (unknown origin); assay type: ADME
T4 sequence (P05177 whole entry): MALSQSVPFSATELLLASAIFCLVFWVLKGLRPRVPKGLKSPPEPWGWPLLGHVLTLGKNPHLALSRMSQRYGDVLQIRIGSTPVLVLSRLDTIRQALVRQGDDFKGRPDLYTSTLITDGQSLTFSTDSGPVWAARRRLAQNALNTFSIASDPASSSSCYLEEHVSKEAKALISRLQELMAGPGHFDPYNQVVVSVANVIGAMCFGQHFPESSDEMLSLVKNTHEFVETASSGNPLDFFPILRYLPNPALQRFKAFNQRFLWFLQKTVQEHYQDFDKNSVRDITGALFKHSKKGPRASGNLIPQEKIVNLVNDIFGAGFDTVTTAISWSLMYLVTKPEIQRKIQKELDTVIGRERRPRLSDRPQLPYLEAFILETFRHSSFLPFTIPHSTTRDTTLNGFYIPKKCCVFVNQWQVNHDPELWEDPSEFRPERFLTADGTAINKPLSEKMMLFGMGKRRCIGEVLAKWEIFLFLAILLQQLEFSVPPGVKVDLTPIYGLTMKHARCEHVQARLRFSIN

Cytochrome P450 3A4 [4] = biological target: T3, Cytochrome P450 3A4; assay: Inhibition of CYP3A4 (unknown origin) using BFC as substrate preincubated with compound followed by substrate addition at 30 mins; assay type: ADME
Cytochrome P450 2C9 = Cytochrome P450 2C9 (Homo sapiens, UniProt P11712); assay: Inhibition of CYP2C9 (unknown origin); assay type: ADME
Cytochrome P450 2C9, sequence (P11712 whole entry): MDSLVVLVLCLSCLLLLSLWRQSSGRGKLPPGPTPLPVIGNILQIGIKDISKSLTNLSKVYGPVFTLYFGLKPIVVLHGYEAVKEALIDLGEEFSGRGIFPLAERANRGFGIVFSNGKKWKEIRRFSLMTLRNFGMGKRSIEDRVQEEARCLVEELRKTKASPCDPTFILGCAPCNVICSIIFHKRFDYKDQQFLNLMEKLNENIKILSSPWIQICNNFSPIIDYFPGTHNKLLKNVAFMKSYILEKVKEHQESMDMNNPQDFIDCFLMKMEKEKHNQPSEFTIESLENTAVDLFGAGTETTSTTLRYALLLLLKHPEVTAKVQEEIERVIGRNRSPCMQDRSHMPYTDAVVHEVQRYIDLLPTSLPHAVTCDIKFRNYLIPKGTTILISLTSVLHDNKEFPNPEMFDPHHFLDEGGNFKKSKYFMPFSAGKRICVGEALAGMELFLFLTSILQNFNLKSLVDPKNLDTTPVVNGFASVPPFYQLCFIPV

Cytochrome P450 2C19 = Cytochrome P450 2C19 (Homo sapiens, UniProt P33261); assay: Inhibition of CYP2C19 (unknown origin); assay type: ADME
Cytochrome P450 2C19, sequence (P33261 whole entry): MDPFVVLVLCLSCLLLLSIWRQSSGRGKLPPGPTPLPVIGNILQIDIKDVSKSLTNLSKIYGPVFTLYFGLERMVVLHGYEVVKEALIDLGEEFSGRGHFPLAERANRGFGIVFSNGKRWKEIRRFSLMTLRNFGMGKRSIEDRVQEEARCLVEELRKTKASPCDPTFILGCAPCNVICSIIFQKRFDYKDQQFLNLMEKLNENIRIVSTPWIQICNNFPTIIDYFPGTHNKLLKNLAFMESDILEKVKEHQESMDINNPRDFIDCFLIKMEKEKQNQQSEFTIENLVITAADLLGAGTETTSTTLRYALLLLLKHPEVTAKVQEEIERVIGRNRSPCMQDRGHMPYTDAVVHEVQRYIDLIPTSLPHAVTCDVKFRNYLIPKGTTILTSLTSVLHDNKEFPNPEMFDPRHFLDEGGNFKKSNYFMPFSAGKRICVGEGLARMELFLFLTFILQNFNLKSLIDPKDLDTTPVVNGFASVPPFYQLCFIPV

Cytochrome P450 3A4 [5] = biological target: T3, Cytochrome P450 3A4; assay: Inhibition of CYP3A4 (unknown origin) using BFC as substrate preincubated with compound followed by substrate addition at 5 mins; assay type: ADME
[6] = Metabolic stability in human liver microsomes assessed as compound remaining at 0.5 uM incubated for 10 mins in presence of NADPH by UV absorbance based assay; assay type: ADME, Microsome; settings: read-out: Stability
[7] = biological target: Voltage-gated inwardly rectifying potassium channel KCNH2 (Homo sapiens, UniProt Q12809); assay: Inhibition of hERG; assay type: toxicity; settings: for inhibition (INH): human
Voltage-gated inwardly rectifying potassium channel KCNH2, sequence (Q12809 whole entry): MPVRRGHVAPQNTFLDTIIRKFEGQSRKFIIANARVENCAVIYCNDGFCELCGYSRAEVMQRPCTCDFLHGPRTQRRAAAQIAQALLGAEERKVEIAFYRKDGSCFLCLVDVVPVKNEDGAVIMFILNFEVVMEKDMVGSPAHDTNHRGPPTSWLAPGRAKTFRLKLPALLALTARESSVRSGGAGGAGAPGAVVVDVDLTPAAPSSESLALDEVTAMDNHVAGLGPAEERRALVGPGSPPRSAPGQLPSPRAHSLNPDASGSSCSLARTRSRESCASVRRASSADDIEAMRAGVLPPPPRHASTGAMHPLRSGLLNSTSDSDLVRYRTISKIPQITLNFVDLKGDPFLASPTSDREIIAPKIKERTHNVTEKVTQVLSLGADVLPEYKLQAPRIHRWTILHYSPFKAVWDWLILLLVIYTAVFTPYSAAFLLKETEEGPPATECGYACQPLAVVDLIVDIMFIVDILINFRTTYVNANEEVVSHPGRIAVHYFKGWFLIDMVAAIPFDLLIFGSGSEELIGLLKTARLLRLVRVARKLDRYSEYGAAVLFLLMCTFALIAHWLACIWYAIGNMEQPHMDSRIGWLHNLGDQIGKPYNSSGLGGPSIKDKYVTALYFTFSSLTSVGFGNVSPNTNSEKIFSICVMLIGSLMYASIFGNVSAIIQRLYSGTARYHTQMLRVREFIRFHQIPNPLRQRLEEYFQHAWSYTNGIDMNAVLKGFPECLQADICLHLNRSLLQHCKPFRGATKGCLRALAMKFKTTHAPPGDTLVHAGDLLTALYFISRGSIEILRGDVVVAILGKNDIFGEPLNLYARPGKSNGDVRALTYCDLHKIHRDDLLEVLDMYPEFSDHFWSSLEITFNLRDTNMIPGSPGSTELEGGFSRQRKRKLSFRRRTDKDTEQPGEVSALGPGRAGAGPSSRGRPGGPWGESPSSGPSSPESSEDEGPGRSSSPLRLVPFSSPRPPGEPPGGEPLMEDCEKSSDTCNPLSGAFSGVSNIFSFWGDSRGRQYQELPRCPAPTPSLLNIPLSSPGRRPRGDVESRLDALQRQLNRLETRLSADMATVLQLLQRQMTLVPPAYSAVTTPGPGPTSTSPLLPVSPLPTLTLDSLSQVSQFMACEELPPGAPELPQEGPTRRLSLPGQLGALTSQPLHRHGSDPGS

[8] = Cytotoxicity against PHA-activated T-cells (unknown origin) assessed as inhibition of IL-2 induced cell proliferation measured after 72 hrs by MTS assay; assay type: toxicity, cell-based
Toll-like receptor 7 [9] = biological target: T5, Toll-like receptor 7 (Homo sapiens, UniProt Q9NYK1); assay: Agonist activity at human TLR7 in HEK-Blue hTLR7 cells harboring SEAP reporter transgene incubated for 18 hrs by quanti-blue reagent based assay; assay type: cell-based
T5 sequence (Q9NYK1 whole entry): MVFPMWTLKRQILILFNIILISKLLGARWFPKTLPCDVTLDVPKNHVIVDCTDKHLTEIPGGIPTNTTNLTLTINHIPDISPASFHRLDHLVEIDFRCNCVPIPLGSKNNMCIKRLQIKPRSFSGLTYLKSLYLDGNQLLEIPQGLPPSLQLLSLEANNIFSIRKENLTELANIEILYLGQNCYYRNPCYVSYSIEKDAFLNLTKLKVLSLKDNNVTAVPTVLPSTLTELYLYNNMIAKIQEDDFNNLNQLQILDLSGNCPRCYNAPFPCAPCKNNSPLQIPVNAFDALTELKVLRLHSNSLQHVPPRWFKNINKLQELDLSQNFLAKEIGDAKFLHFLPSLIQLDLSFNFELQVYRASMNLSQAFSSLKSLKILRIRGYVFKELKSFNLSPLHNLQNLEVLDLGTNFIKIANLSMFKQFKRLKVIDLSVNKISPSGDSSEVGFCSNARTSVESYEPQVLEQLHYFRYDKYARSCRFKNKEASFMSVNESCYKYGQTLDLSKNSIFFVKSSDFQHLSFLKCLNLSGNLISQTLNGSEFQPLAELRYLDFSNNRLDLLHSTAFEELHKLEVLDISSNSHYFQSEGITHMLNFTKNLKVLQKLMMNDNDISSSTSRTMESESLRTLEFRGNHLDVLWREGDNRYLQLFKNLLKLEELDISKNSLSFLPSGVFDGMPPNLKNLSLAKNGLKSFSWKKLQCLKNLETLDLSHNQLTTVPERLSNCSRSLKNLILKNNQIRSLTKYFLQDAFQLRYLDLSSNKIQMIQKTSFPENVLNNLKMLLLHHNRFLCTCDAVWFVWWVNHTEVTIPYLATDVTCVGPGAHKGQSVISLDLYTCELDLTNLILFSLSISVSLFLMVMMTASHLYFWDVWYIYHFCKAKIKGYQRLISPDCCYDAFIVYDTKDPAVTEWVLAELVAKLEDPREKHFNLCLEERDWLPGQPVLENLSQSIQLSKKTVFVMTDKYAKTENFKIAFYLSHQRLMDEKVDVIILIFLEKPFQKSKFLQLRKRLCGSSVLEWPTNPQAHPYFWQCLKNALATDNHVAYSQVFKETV

| SMILES | pIC50 (Cytochrome P450 2C8) | pIC50 (Cytochrome P450 2D6) | pEC50 (Toll-like receptor 7 [1]) | remaining at 10 min, 0.5 µM [2] | pIC50 (Cytochrome P450 3A4 [3]) | pIC50 (Cytochrome P450 1A2) | pIC50 (Cytochrome P450 3A4 [4]) | pIC50 (Cytochrome P450 2C9) | pIC50 (Cytochrome P450 2C19) | pIC50 (Cytochrome P450 3A4 [5]) | remaining at 10 min, 0.5 µM [6] | pEC50 (Toll-like receptor 7 [9]) | pIC50 [7] | IC50 at 72 h [8] | inhibition (INH) [7] | also measured |
| --- | --- | --- | --- | --- | --- | --- | --- | --- | --- | --- | --- | --- | --- | --- | --- | --- |
| CCC[C@@H](CCO)Nc1nc(N)nc2cnn(Cc3ncc(C4CC5(CNC5)C4)cc3OC)c12 | < 4.77 | < 4.77 | 5.80 | 100% | < 4.77 | < 4.77 | < 4.77 | < 4.77 | < 4.77 | < 4.77 | 87% | 6.43 | < 4.30 | > 25 µM | – | – |
| CCC[C@@H](CCO)Nc1nc(N)nc2cnn(Cc3ncc(C4CCC5(CC4)CNC5)cc3OC)c12 | < 4.85 | < 4.85 | 6.75 | 44% | < 4.85 | < 4.85 | < 4.85 | < 4.85 | < 4.85 | < 4.85 | 100% | 6.88 | 4.85 | > 25 µM | – | – |
| CCCCNc1nc(N)nc2cnn(Cc3ccc(C4CCNCC4)cc3OC(F)F)c12 | – | – | 6.33 | 17% | – | – | – | – | – | – | 100% | 7.06 | – | > 25 µM | Not Active | inhibition (INH) (Cytochrome P450 2C8; human): Not Active; inhibition (INH) (Cytochrome P450 2D6; human): Not Active; inhibition (INH) (Cytochrome P450 3A4 [3]; human): Not Active; inhibition (INH) (Cytochrome P450 1A2; human): Not Active; inhibition (INH) (Cytochrome P450 2C9; human): Not Active; inhibition (INH) (Cytochrome P450 2C19; human): Not Active |
| CCCCNc1nc(N)nc2cnn(Cc3ccc(N4CCNCC4)cc3OC)c12 | < 4.70 | < 4.70 | 5.71 | 5% | < 4.70 | < 4.70 | < 4.70 | < 4.70 | < 4.70 | < 4.70 | 100% | 6.11 | – | 20 µM | Not Active | – |

The next molecules have a higher pEC50 (Toll-like receptor 7 [1]) than those just listed; values first:

| pIC50 (Cytochrome P450 2C8) | pIC50 (Cytochrome P450 2D6) | pEC50 (Toll-like receptor 7 [1]) | remaining at 10 min, 0.5 µM [2] | pIC50 (Cytochrome P450 3A4 [3]) | pIC50 (Cytochrome P450 1A2) | pIC50 (Cytochrome P450 3A4 [4]) | pIC50 (Cytochrome P450 2C9) | pIC50 (Cytochrome P450 2C19) | pIC50 (Cytochrome P450 3A4 [5]) | remaining at 10 min, 0.5 µM [6] | pEC50 (Toll-like receptor 7 [9]) | SMILES | pIC50 [7] | IC50 at 72 h [8] | inhibition (INH) [7] | also measured |
| --- | --- | --- | --- | --- | --- | --- | --- | --- | --- | --- | --- | --- | --- | --- | --- | --- |
| < 4.70 | < 4.70 | 7.32 | 87% | < 4.70 | < 4.70 | < 4.70 | < 4.70 | < 4.70 | < 4.70 | 88% | 7.68 | CCC[C@@H](CCO)Nc1nc(N)nc2cnn(Cc3ncc(C4CCC5(CC4)CN(C(C)C)C5)cc3OC)c12 | 4.89 | > 25 µM | – | – |
| < 4.70 | < 4.70 | 7.54 | 50% | < 4.70 | < 4.70 | < 4.70 | < 4.70 | < 4.70 | < 4.70 | 57% | 7.92 | CCC[C@@H](CCO)Nc1nc(N)nc2cnn(Cc3ncc(C4CCC5(CC4)CN(C4CCOCC4)C5)cc3OC)c12 | – | 18 µM | Not Active | – |
